According to patent US11434242B2, “Dopamine-b-hydroxylase inhibitors” (BIAL-PORTELA & Cª, S.A., priority 2017, dated 2022):

Molecular target: T1, Dopamine beta hydroxylase (Homo sapiens, UniProt P09172)
T1 construct: 125 μl of plasma; tissue Instituto Português do Sangue Transplantação; host or cells: human plasma from healthy donors
T1 sequence (P09172 40-617 limits assumed): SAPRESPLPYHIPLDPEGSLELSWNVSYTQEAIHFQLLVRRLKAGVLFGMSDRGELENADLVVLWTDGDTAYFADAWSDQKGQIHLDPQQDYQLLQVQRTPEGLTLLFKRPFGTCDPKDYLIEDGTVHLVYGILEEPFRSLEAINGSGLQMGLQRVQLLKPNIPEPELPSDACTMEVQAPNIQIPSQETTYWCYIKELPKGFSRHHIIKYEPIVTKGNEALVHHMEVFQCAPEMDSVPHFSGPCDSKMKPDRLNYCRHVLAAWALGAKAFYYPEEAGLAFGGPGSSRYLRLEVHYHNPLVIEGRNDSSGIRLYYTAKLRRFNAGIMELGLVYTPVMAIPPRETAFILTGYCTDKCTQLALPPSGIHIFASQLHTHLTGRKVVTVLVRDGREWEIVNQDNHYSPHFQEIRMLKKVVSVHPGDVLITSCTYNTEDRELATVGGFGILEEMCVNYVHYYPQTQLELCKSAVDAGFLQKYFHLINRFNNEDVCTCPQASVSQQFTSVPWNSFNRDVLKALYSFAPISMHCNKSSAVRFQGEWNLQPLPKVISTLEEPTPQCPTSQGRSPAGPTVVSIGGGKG
Assay: Dopamine beta hydroxylase activity in human plasma
Assay type: biochemical
Conditions: for Plasma (0.01 μM), activity in % of control: inhibitor 0.01 μM; for Plasma (0.1 μM), activity in % of control: inhibitor 0.1 μM; for Plasma (1 μM), activity in % of control: inhibitor 1 μM
Summary of the method: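 Healthy-donor human plasma pre-incubated 10 min at 37° C with compound at final 10, 100 or 1000 nM in pH 5.0 acetate buffer with ascorbate, fumarate, pargyline, N-ethylmaleimide, catalase and copper sulfate. Tyramine substrate then added for 45 min; octopamine formed was isolated by SCX cartridge, periodate-converted and read at 330 nm; activity given as % control.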

| SMILES | Plasma (0.01 μM), activity in % of control | Plasma (0.1 μM), activity in % of control | Plasma (1 μM), activity in % of control |
| --- | --- | --- | --- |
| Cn1c(CC(=O)N2CCCC2)c2n(c1=S)C[C@@]1(c3cc(Cl)ccc3F)C[C@@H]21 [Example 309, 2-((5aS,6aR)-5a-(5-chloro-2-fluorophenyl)-2-methyl-3-thioxo-2,3,5,5a,6,6a-hexahydrocyclopropa[3,4]pyrrolo[1,2-c]imidazol-1-yl)-1-(pyrrolidin-1-yl)ethan-1-one] | 86.2 % of control | 38.8 % of control | – |
| O=C(Cc1[nH]c(=S)n2c1C[C@H](c1c(F)c(F)cc(F)c1F)C2)N[C@H]1CC[C@H](O)CC1 [Example 28, N-((1r,4R)-4-hydroxycyclohexyl)-2-((R)-6-(2,3,5,6-tetrafluorophenyl)-3-thioxo-2,5,6,7-tetrahydro-3H-pyrrolo[1,2-c]imidazol-1-yl)acetamide] | 78.1 % of control | 33.8 % of control | – |
| CN1CCN(C(=O)Cc2c3n(c(=S)n2C)C[C@@]2(c4cc(Cl)ccc4F)C[C@@H]32)CC1 [Example 326, 2-((5aS,6aR)-5a-(5-chloro-2-fluorophenyl)-2-methyl-3-thioxo-2,3,5,5a,6,6a-hexahydrocyclopropa[3,4]pyrrolo[1,2-c]imidazol-1-yl)-1-(4-methylpiperazin-1-yl)ethan-1-one] | 96.6 % of control | 59.5 % of control | – |
| O=C(Cc1[nH]c(=S)n2c1C[C@H](c1c(F)c(F)cc(F)c1F)C2)NC1CC1 [Example 78, (R)—N-cyclopropyl-2-(6-(2,3,5,6-tetrafluorophenyl)-3-thioxo-2,5,6,7-tetrahydro-3H-pyrrolo[1,2-c]imidazol-1-yl)acetamide] | – | 77.3 % of control | 24.4 % of control |
| CN1CCN(C(=O)Cc2c3n(c(=S)n2C)C[C@@H](c2c(F)c(F)cc(F)c2F)C3)CC1=O [Example 324, (R)-1-methyl-4-(2-(2-methyl-6-(2,3,5,6-tetrafluorophenyl)-3-thioxo-2,5,6,7-tetrahydro-3H-pyrrolo[1,2-c]imidazol-1-yl)acetyl)piperazin-2-one] | 88.6 % of control | 53.1 % of control | – |
| O=C(Cc1[nH]c(=S)n2c1C[C@@H](c1c(F)c(F)cc(F)c1F)C2)N1CCCC1 [Example 105, (S)-1-(pyrrolidin-1-yl)-2-(6-(2,3,5,6-tetrafluorophenyl)-3-thioxo-2,5,6,7-tetrahydro-3H-pyrrolo[1,2-c]imidazol-1-yl)ethan-1-one] | – | 74.9 % of control | 22.0 % of control |
| O=C(Cc1[nH]c(=S)n2c1C[C@H](c1cc(Cl)ccc1F)C2)N[C@@H]1CCOC1 [Example 75, 2-((R)-6-(5-chloro-2-fluorophenyl)-3-thioxo-2,5,6,7-tetrahydro-3H-pyrrolo[1,2-c]imidazol-1-yl)-N—((R)-tetrahydrofuran-3-yl)acetamide] | – | 91.0 % of control | 56.3 % of control |

Further lines, results first:

| Plasma (0.01 μM), activity in % of control | Plasma (0.1 μM), activity in % of control | Plasma (1 μM), activity in % of control | SMILES |
| --- | --- | --- | --- |
| 79.3 % of control | 62.6 % of control | – | O=C(Cc1[nH]c(=S)n2c1C[C@H](c1c(F)ccc(Br)c1F)C2)N1CCCC(O)C1 (stereo partly drawn) [Example 121, 2-((R)-6-(3-bromo-2,6-difluorophenyl)-3-thioxo-2,5,6,7-tetrahydro-3H-pyrrolo[1,2-c]imidazol-1-yl)-1-(3-hydroxypiperidin-1-yl)ethan-1-one] |
| 85.1 % of control | 25.6 % of control | – | O=C(Cc1[nH]c(=S)n2c1C[C@@H](c1c(F)ccc(Cl)c1F)C2)NCC(F)(F)F [Example 113, (S)-2-(6-(3-chloro-2,6-difluorophenyl)-3-thioxo-2,5,6,7-tetrahydro-3H-pyrrolo[1,2-c]imidazol-1-yl)-N-(2,2,2-trifluoroethyl)acetamide] |
| 73.6 % of control | 12.9 % of control | – | O=C(NCc1[nH]c(=S)n2c1C[C@@H](c1c(F)ccc(Cl)c1F)C2)C1CCOCC1 [Example 222, (S)—N-((6-(3-chloro-2,6-difluorophenyl)-3-thioxo-2,5,6,7-tetrahydro-3H-pyrrolo[1,2-c]imidazol-1-yl)methyl)tetrahydro-2H-pyran-4-carboxamide] |
| 36.4 % of control | 6.2 % of control | – | Cn1cc(CNC(=O)Cc2c3n(c(=S)n2C)C[C@H](c2c(F)ccc(Cl)c2F)C3)cn1 [Example 338, (S)-2-(6-(3-chloro-2,6-difluorophenyl)-2-methyl-3-thioxo-2,5,6,7-tetrahydro-3H-pyrrolo[1,2-c]imidazol-1-yl)-N-((1-methyl-1H-pyrazol-4-yl)methyl)acetamide] |
| 81.3 % of control | 83.8 % of control | – | C[C@@H](NC(=O)Cc1[nH]c(=S)n2c1C[C@H](c1c(F)ccc(Br)c1F)C2)C1CCCCC1 [Example 127, 2-((R)-6-(3-bromo-2,6-difluorophenyl)-3-thioxo-2,5,6,7-tetrahydro-3H-pyrrolo[1,2-c]imidazol-1-yl)-N—((R)-1-cyclohexylethyl)acetamide] |
| – | 5.4 % of control | 1.5 % of control | Cl.O=C(Cc1[nH]c(=S)n2c1C[C@@H](c1c(F)ccc(Cl)c1F)C2)NCc1cccnc1 [Example 109, (S)-2-(6-(3-chloro-2,6-difluorophenyl)-3-thioxo-2,5,6,7-tetrahydro-3H-pyrrolo[1,2-c]imidazol-1-yl)-N-(pyridin-3-ylmethyl)acetamide Hydrochloride] |
| 72.1 % of control | 17.8 % of control | – | O=C(Cc1[nH]c(=S)n2c1[C@@H]1C[C@]1(c1cc(Br)ccc1F)C2)NCC(F)(F)F [Example 152, 2-((5aS,6aR)-5a-(5-bromo-2-fluorophenyl)-3-thioxo-2,3,5,5a,6,6a-hexahydrocyclopropa[3,4]pyrrolo[1,2-c]imidazol-1-yl)-N-(2,2,2-trifluoroethyl)acetamide] |
| 79.0 % of control | 17.7 % of control | – | CN1CC(NC(=O)Cc2c3n(c(=S)n2C)C[C@@H](c2c(F)ccc(F)c2F)C3)CCC1=O (stereo partly drawn) [Example 371, 2-((R)-2-methyl-3-thioxo-6-(2,3,6-trifluorophenyl)-2,5,6,7-tetrahydro-3H-pyrrolo[1,2-c]imidazol-1-yl)-N-(1-methyl-6-oxopiperidin-3-yl)acetamide] |
| 84.7 % of control | 50.8 % of control | – | O=C(Cc1[nH]c(=S)n2c1C[C@H](c1c(F)ccc(Br)c1F)C2)N[C@@H]1CCCC[C@H]1O [Example 160, 2-((R)-6-(3-bromo-2,6-difluorophenyl)-3-thioxo-2,5,6,7-tetrahydro-3H-pyrrolo[1,2-c]imidazol-1-yl)-N-((1R,2R)-2-hydroxycyclohexyl)acetamide] |
| 74.9 % of control | 27.4 % of control | – | CN(C(=O)Cc1[nH]c(=S)n2c1C[C@@H](c1c(F)ccc(Cl)c1F)C2)C1CCOCC1 [Example 380, (S)-2-(6-(3-chloro-2,6-difluorophenyl)-3-thioxo-2,5,6,7-tetrahydro-3H-pyrrolo[1,2-c]imidazol-1-yl)-N-methyl-N-(tetrahydro-2H-pyran-4-yl)acetamide] |
